Here are results for 20 compounds from PubChem BioAssay (NCI).

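Test compounds were applied to cells in 96-well plates for 48 hours at 5 doses. GI50 is the concentration that inhibits growth by half. At the TGI there is no net growth.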 Where a SMILES comes first, the peptide text is derived from it. [ ]: non-standard residue; d: D form. The star is where a group is joined. ξ: configuration not given here. X16 = COC1=CC(=O)N(C(=O)C(O*)C(C)C)C1Cc1ccccc1; ξNMe2Val = CC(C)C(C(=O)*)N(C)C; NMeV = CN[CH](C(=O)O)C(C)C Bounds are passed on as bounds.

Some test systems named below: SK-MEL-2 melanoma; A498 renal; NCI/ADR-RES ovarian; UACC-62 melanoma; DU-145 prostate; SK-MEL-28 melanoma; OVCAR-8 ovarian; HCT-15 colon; SK-OV-3 ovarian; HOP-62 NSCLC.
Common to all, as to assay: inhibition of tumour cell growth, NCI panel, 48 h

On to `O=C1N[C@H]2c3c(Cl)sc(Cl)c3C(=O)[C@H]2O1`, for which the TGI with SK-MEL-2 melanoma is greater than 59.9 µM; in the test with A498 renal it was 43.2 µM; in the test with NCI/ADR-RES ovarian, 37.2 µM; in the test with UACC-62 melanoma it was 36.4 µM; in the test on DU-145 prostate it was greater than 54.6 µM; in the test on SK-MEL-28 melanoma, 24.7 µM. In addition, the TGI with OVCAR-8 ovarian is 12.2 µM; with HCT-15 colon, 5.51 µM; in the test on SK-OV-3 ovarian, 52.1 µM; in the test on HOP-62 NSCLC, 42 µM.

Take `O=S(=O)(O)c1ccc(NN(c2c(O)ccc3ccccc23)S(=O)(=O)O)cc1`: the TGI in the test with SK-MEL-2 melanoma, with A498 renal, in the test with NCI/ADR-RES ovarian, with UACC-62 melanoma, in the test on DU-145 prostate and with SK-MEL-28 melanoma was greater than 100 µM in each case. Also, the TGI in the test on OVCAR-8 ovarian, with HCT-15 colon, with SK-OV-3 ovarian and in the test with HOP-62 NSCLC was greater than 100 µM each time.

Take `COc1c2cc(C(C)(C)C)cc1CSCc1cc(C(C)(C)C)cc(c1OC)CCCCC2`: the TGI in the test with SK-MEL-2 melanoma, with A498 renal, with NCI/ADR-RES ovarian, in the test on UACC-62 melanoma, in the test on DU-145 prostate and in the test on SK-MEL-28 melanoma was greater than 50 µM in each case. Moreover, the TGI in the test on OVCAR-8 ovarian, in the test on HCT-15 colon, in the test on SK-OV-3 ovarian and in the test with HOP-62 NSCLC was greater than 50 µM each time.

In the case of `CC(C)(C)C1CCC2c3c([nH]c4ccccc34)C3C(=O)N(c4cc(Br)cc(Br)c4)C(=O)C3C2C1` (centres undefined), the TGI in the test with SK-MEL-2 melanoma is 47.5 µM; with A498 renal it was 68.4 µM; in the test on NCI/ADR-RES ovarian it was 40.8 µM; in the test with UACC-62 melanoma, greater than 100 µM; with DU-145 prostate, greater than 100 µM; in the test on SK-MEL-28 melanoma it was 25.9 µM. Moreover, the TGI was 50.2 µM with OVCAR-8 ovarian, greater than 100 µM in the test with HCT-15 colon, greater than 100 µM in the test with SK-OV-3 ovarian and 69.6 µM in the test on HOP-62 NSCLC.

Consider `CCOC(=O)C1(Cc2ccc(C)cc2)Cc2ccc(C)cc2C1=O` (centres undefined), for which the TGI is 32.9 µM with SK-MEL-2 melanoma; greater than 79.1 µM in the test on A498 renal; 32.5 µM in the test with NCI/ADR-RES ovarian; greater than 100 µM in the test with UACC-62 melanoma; greater than 100 µM with DU-145 prostate; greater than 100 µM in the test on SK-MEL-28 melanoma. Besides, the TGI was greater than 96.6 µM with OVCAR-8 ovarian, greater than 100 µM with HCT-15 colon, greater than 100 µM in the test with SK-OV-3 ovarian and greater than 100 µM in the test on HOP-62 NSCLC.

`CSc1nc2c(c(N(C)C)n1)C=Nn1c(nc3ccccc31)S2`: the TGI in the test with SK-MEL-2 melanoma, in the test with A498 renal, in the test with NCI/ADR-RES ovarian, with UACC-62 melanoma, with DU-145 prostate and in the test on SK-MEL-28 melanoma was greater than 100 µM throughout. In addition, the TGI with OVCAR-8 ovarian, with HCT-15 colon, in the test on SK-OV-3 ovarian and in the test on HOP-62 NSCLC was greater than 100 µM each time.

As to `C[N+]1(C)C2Cc3ccccc3C1Cc1ccccc12`, the TGI in the test with SK-MEL-2 melanoma, in the test with A498 renal, with NCI/ADR-RES ovarian, in the test with UACC-62 melanoma, in the test with DU-145 prostate and with SK-MEL-28 melanoma was greater than 100 µM in each case. The TGI with OVCAR-8 ovarian, with HCT-15 colon, with SK-OV-3 ovarian and in the test with HOP-62 NSCLC was greater than 100 µM in each case.

With `COc1ccc2nc3ccc(OC)cc3c(S(=O)Cc3ccc([N+](=O)[O-])cc3)c2c1` (centres undefined), the TGI is 34.9 µM with SK-MEL-2 melanoma; 36.3 µM in the test with A498 renal; 62.3 µM in the test on NCI/ADR-RES ovarian; 29.5 µM in the test on UACC-62 melanoma; 6.59 µM with DU-145 prostate; 15.7 µM in the test on SK-MEL-28 melanoma. In addition, the TGI amounted to 13.1 µM in the test with OVCAR-8 ovarian, 10.5 µM in the test on HCT-15 colon, 40.1 µM in the test on SK-OV-3 ovarian and 30.7 µM in the test with HOP-62 NSCLC.

Consider `COC(=O)C1Cc2c(C)cccc2C1=O` (centres undefined), for which the TGI in the test with SK-MEL-2 melanoma, with A498 renal, in the test with NCI/ADR-RES ovarian, with UACC-62 melanoma, with DU-145 prostate and in the test with SK-MEL-28 melanoma was greater than 100 µM each time. For the same compound, the TGI in the test on OVCAR-8 ovarian, with HCT-15 colon, in the test on SK-OV-3 ovarian and with HOP-62 NSCLC was greater than 100 µM each time.

For the compound `COC(=O)OC[C@H]1O[C@@H](n2cc(C)c(=O)[nH]c2=O)CC1OC(=O)OC` (some centres undefined), the TGI with SK-MEL-2 melanoma, in the test on A498 renal, in the test on NCI/ADR-RES ovarian, with UACC-62 melanoma, in the test on DU-145 prostate and in the test with SK-MEL-28 melanoma was greater than 100 µM throughout. Also, the TGI with OVCAR-8 ovarian, in the test with HCT-15 colon, in the test on SK-OV-3 ovarian and with HOP-62 NSCLC was greater than 100 µM in each case.

Regarding `COc1ccc(CN2C(=O)CCC/C=C\[C@H]2CI)cc1`, the TGI in the test with SK-MEL-2 melanoma stood at 23 µM; in the test on A498 renal, 25 µM; in the test with NCI/ADR-RES ovarian, 28.2 µM; in the test with UACC-62 melanoma it was 22.6 µM; with DU-145 prostate it was 26 µM; with SK-MEL-28 melanoma, 25.2 µM. The TGI was 27.5 µM in the test on OVCAR-8 ovarian, 24.9 µM with HCT-15 colon, 30 µM with SK-OV-3 ovarian and 31.1 µM in the test with HOP-62 NSCLC.

Turning to `N#CC(c1ccc(O)cc1)N1CCN(C(C#N)c2ccc(O)cc2)CC1` (centres undefined), the TGI in the test with SK-MEL-2 melanoma is greater than 100 µM; in the test on A498 renal, greater than 100 µM; in the test with NCI/ADR-RES ovarian it was greater than 100 µM; in the test with UACC-62 melanoma, greater than 100 µM; in the test on DU-145 prostate it was greater than 91.5 µM; with SK-MEL-28 melanoma, greater than 100 µM. The TGI in the test on OVCAR-8 ovarian is greater than 53.1 µM; in the test with HCT-15 colon, greater than 100 µM; with SK-OV-3 ovarian it was greater than 100 µM; in the test with HOP-62 NSCLC, 57.1 µM.

In the case of `COc1cc2c(cc1OC)C(=O)N(c1ccc(O)cc1)C2`, the TGI with SK-MEL-2 melanoma, with A498 renal, in the test with NCI/ADR-RES ovarian, in the test on UACC-62 melanoma, in the test on DU-145 prostate and in the test with SK-MEL-28 melanoma was greater than 100 µM in each case. In addition, the TGI in the test with OVCAR-8 ovarian, in the test with HCT-15 colon, in the test with SK-OV-3 ovarian and with HOP-62 NSCLC was greater than 100 µM in each case.

With `NC1=CN(CCCO)C2=N/C(=C\c3ccco3)C(=O)N12`, the TGI in the test on SK-MEL-2 melanoma, in the test with A498 renal, with NCI/ADR-RES ovarian, in the test on UACC-62 melanoma, in the test with DU-145 prostate and with SK-MEL-28 melanoma was greater than 100 µM each time. For the same compound, the TGI in the test on OVCAR-8 ovarian, in the test with HCT-15 colon, in the test with SK-OV-3 ovarian and in the test on HOP-62 NSCLC was greater than 100 µM each time.

As for `CCC1(O)C=CC(=O)C=C1`, the TGI in the test with SK-MEL-2 melanoma was greater than 100 µM; in the test on A498 renal, 67.9 µM; with NCI/ADR-RES ovarian it was greater than 66.8 µM; in the test with UACC-62 melanoma, 43.6 µM; in the test with DU-145 prostate it was greater than 64.4 µM; in the test with SK-MEL-28 melanoma it was 57.6 µM. For the same compound, the TGI in the test with OVCAR-8 ovarian is greater than 100 µM; in the test with HCT-15 colon, 55.5 µM; in the test with SK-OV-3 ovarian, greater than 100 µM; with HOP-62 NSCLC it was 67.5 µM.

As to `CCOC(=O)c1ccc(NC2Oc3cc4c(cc3C(c3cc(OC)c(OC)c(OC)c3)C2C)OCO4)cc1` (centres undefined), the TGI in the test on SK-MEL-2 melanoma was greater than 63.4 µM; in the test with A498 renal, greater than 100 µM; with NCI/ADR-RES ovarian, 8.27 µM; in the test with UACC-62 melanoma, 64.5 µM; with DU-145 prostate, greater than 100 µM; in the test on SK-MEL-28 melanoma, greater than 100 µM. In addition, the TGI is 33 µM in the test on OVCAR-8 ovarian, greater than 54.6 µM in the test on HCT-15 colon, greater than 21.1 µM in the test with SK-OV-3 ovarian and greater than 71.4 µM in the test with HOP-62 NSCLC.

For `COC(=O)[C@]1(C)CCCn2c(=O)n(-c3ccccc3)c(=O)n21`, the TGI with SK-MEL-2 melanoma, in the test on A498 renal, in the test with NCI/ADR-RES ovarian, in the test on UACC-62 melanoma, in the test with DU-145 prostate and with SK-MEL-28 melanoma was greater than 100 µM throughout. The TGI with OVCAR-8 ovarian, in the test on HCT-15 colon, in the test with SK-OV-3 ovarian and in the test on HOP-62 NSCLC was greater than 100 µM in each case.

As for `Oc1c(OCc2nnc(CCCCCCCCc3nnc(COc4ccc5ccccc5c4O)n3Nc3ccccc3)n2Nc2ccccc2)ccc2ccccc12`, the TGI in the test with SK-MEL-2 melanoma is 27.6 µM; with A498 renal it was 34.3 µM; in the test with NCI/ADR-RES ovarian, 42.6 µM; in the test with UACC-62 melanoma, 16.5 µM; with DU-145 prostate, 31.9 µM; in the test on SK-MEL-28 melanoma it was 14.3 µM. The TGI with OVCAR-8 ovarian was 28.3 µM; in the test on HCT-15 colon, 30 µM; in the test with SK-OV-3 ovarian, 27.3 µM; in the test with HOP-62 NSCLC, 3.77 µM.

`O=C(NCc1cn(Cc2cccc(Oc3ccccc3)c2)nn1)c1cccnc1Nc1ccccc1`: the GI50 with SK-MEL-2 melanoma was 6.05 µM; in the test on A498 renal, 1.88 µM; in the test with NCI/ADR-RES ovarian, 2.47 µM; with UACC-62 melanoma, 3.02 µM; in the test with DU-145 prostate, 3.94 µM; in the test with SK-MEL-28 melanoma, 4.93 µM. Besides, the GI50 is 4.39 µM with OVCAR-8 ovarian, 3.81 µM with HCT-15 colon, 3.79 µM in the test on SK-OV-3 ovarian and 5.58 µM with HOP-62 NSCLC. Besides, the TGI in the test with SK-MEL-2 melanoma is 75.1 µM; with A498 renal, 8.19 µM; in the test on NCI/ADR-RES ovarian, greater than 100 µM; in the test on UACC-62 melanoma it was 33.8 µM; with DU-145 prostate, 33.8 µM; in the test with SK-MEL-28 melanoma, greater than 100 µM. The TGI with OVCAR-8 ovarian was greater than 100 µM; in the test with HCT-15 colon, greater than 100 µM; with SK-OV-3 ovarian, 15.1 µM; in the test on HOP-62 NSCLC, greater than 100 µM.

With `COC1=CC(=O)N(C(=O)C(OC(=O)C2CCCN2C(=O)C2CCCN2C(=O)C(C(C)C)N(C)C(=O)C(NC(=O)C(C(C)C)N(C)C)C(C)C)C(C)C)C1Cc1ccccc1` (centres undefined) (ξNMe2Val-V[NMeV]PP-X16; configuration not given here), the GI50 in the test with SK-MEL-2 melanoma is less than 0.0004 µM; in the test with A498 renal, 0.00643 µM; in the test with UACC-62 melanoma, less than 0.0004 µM; in the test with OVCAR-8 ovarian, less than 0.0004 µM; in the test with HCT-15 colon it was less than 0.0004 µM; with SK-OV-3 ovarian, 0.0042 µM. Also, in the test with HOP-62 NSCLC, the GI50 is 0.00241 µM. Besides, the TGI with A498 renal is 0.165 µM; with NCI/ADR-RES ovarian, 0.256 µM; in the test on UACC-62 melanoma it was greater than 4 µM; in the test on DU-145 prostate, 0.00455 µM; in the test on SK-MEL-28 melanoma, 0.00681 µM; in the test on HCT-15 colon, 0.431 µM. The same compound came in with a TGI in the test on HOP-62 NSCLC greater than 4 µM.
